Assay results taken from patent US20240261302A1, “METHODS OF TREATING NEURODEGENERATIVE DISEASES OR CONDITIONS” (FloraScience Inc., priority 2023, published 2024).

Legend:
HT22 cells [1] = test: Reactive Oxygen Species Measurement (CellROX, MitoSOX); type: cell-based, mouse
Procedure: Reactive Oxygen Species Measurement. HT22 cells were seeded onto 96-well black walled plates at a density of 5,000 cells/well in DMEM supplemented with 10% FBS and 1% antibiotics. After the desired treatments, whole cell ROS and mitochondrial superoxide ROS were detected with CellROX Green reagent (Ex/Em=485/520 nm) and MitoSOX Red reagent (Ex/Em=510/580 nm), respectively. Experiments were performed according to the manufacturer's instructions. Fluorescence was measured on a SpectraMax M5 microplate reader. Data were normalized for total protein/well. Each condition was analyzed in sixteen wells per independent experiment (n=16). Results were presented as the percentage of the controls with vehicle alone. Results were verified by live-cell imaging under a fluorescence microscope.

HT22 cells [2] = test: Calcium Measurements (Fluo-4 AM, Rhod-2 AM); type: cell-based, mouse
Procedure: Calcium Measurements. HT22 cells were seeded onto 96-well black walled plates at a density of 5,000 cells/well in DMEM supplemented with 10% FBS and 1% antibiotics. After the desired treatments, Ca^2+ levels were detected with Fluo-4 AM (Ex/Em=494/516 nm) and Rhod-2 AM (Ex/Em=552/581 nm) calcium indicator dyes specific to cytosol and mitochondria, respectively. Fluorescence was measured on a SpectraMax M5 microplate reader. Experiments were performed according to the manufacturer's instructions. Data were normalized for total protein/well. Each condition was analyzed in sixteen wells per independent experiment (n=16). Results were presented as the percentage of the controls with vehicle alone. Results were verified by live-cell imaging under a fluorescence microscope.

[3] = Trolox Equivalent Antioxidant Capacity (TEAC) Assay; type: biochemical; details: 5 to 10 μM, compared to Trolox at 5 μM
Procedure: Trolox Equivalent Antioxidant Capacity (TEAC) Assay. Briefly, an aqueous 2,2′-azino-bis(3-ethylbenzothiazoline-6-sulfonic acid) (ABTS) solution (7 mM) was treated with potassium persulfate (K2S2O8) (2.5 mM) overnight at room temperature in the dark and diluted in water to an OD value of 0.7 at 734 nm. 190 μL of the diluted ABTS solution was added to a 96-well plate containing 10 μL of test compounds or Trolox at the desired concentrations. The plate was vigorously mixed and incubated for 4 min at room temperature in the dark. Optical absorbance was measured at 734 nm on a SpectraMax M5 microplate reader. The decrease in absorbance of the ABTS radical cation indicates the presence of antioxidants. Samples were analyzed in eight wells per independent experiment (n=8). The TEAC values of each sample were presented as the percentage of the standard Trolox at 5 μM.

[4] = Iron (Fe^2+) Binding Assay (ferrozine method); details: 5 to 10 μM, compared to deferiprone 5 μM
Procedure: Iron (Fe^2+) Binding Assay. Ferrous iron binding was measured by the ferrozine method. Briefly, test samples at the desired concentrations were mixed with 5 μM ferrous sulfate (FeSO4) in 100 μL of 50 mM HEPES, pH 7.5 in a 96-well plate. After 2 min, 50 μL of 5 mM ferrozine was added and the optical absorbance at 562 nm was measured on a SpectraMax M5 microplate reader. Each sample was analyzed in eight wells per independent experiment (n=8). Iron binding capacities were presented as the percentage of the vehicle controls without (100%) or with iron (0%).

HT22 cells [5] = test: MitoTracker Assay (mitochondrial mass); type: cell-based, mouse
Procedure: MitoTracker Assay. HT22 cells were seeded onto 96-well black walled plates at a density of 5,000 cells/well in DMEM supplemented with 10% FBS and 1% antibiotics. After the desired treatments, MitoTracker Orange CM−H2TMRos (Ex/Em=554/576 nm) and Hoechst 33342 (Ex/Em=360/460 nm) dyes were added to the cells and incubated under the same culture condition for 2 hr. Fluorescence was measured on a SpectraMax M5 microplate reader. Experiments were performed according to the manufacturer's instructions. Data were normalized for total protein/well. Each condition was analyzed in sixteen wells per independent experiment (n=16). Results were presented as the percentage of the controls with vehicle alone. Results were verified by live-cell imaging under a fluorescence microscope.

HT22 cells [6] = test: Total GSH Measurements; type: cell-based, mouse; details: 5 μM
Procedure: Total GSH Measurements. HT22 cells were seeded onto 35 mm dishes at a density of 70,000 cells/dish in DMEM supplemented with 10% FBS and 1% antibiotics. After the desired treatments, the cells were scraped into ice-cold PBS and the cell pellets collected by centrifugation (500 g). The pellets were resuspended in PBS and 10% sulfosalicylic acid was added at a final concentration of 3.3% to the cells. Proteins were pelleted by centrifugation and the supernatant neutralized. Total GSH was determined by the recycling assay based on the reduction of 5,5-dithiobis(2-nitrobenzoic acid) with glutathione reductase and NADPH and normalized to protein recovered from the acid-precipitated pellet by treatment with 0.2 N NaOH at 37° C. overnight and measured by the BCA protein assay (Pierce, Rockford, IL, USA). Samples were analyzed in four dishes per independent experiment (n=4).

primary cortical neurons = test: Neuroprotection against RSL3 in primary neurons; type: cell-based, rat; details: CBN 10 μM, data not shown
Procedure: Embryonic Cortical Neuron Extraction. Primary cortical neurons were prepared from embryonic day 17 Sprague-Dawley rat pups and used at 7 days in vitro as previously described (7 DIV). Neurons were dissociated from the cortex and maintained in Neurobasal-A medium (Invitrogen, Cat #10888022, Carlsbad, CA) supplemented with B-27 Supplement (Invitrogen, Cat #17504044, Carlsbad, CA), 2 mM glutamine, and 1% antibiotics including penicillin and streptomycin. Cell cultures were incubated at 37° C. in a fully humidified atmosphere containing 10% CO2. All animal procedures were approved by the Salk Institute's Institutional Animal Care and Use Committee.

HT22 cells [7] = test: Oxytosis/ferroptosis assay with erastin (Table 2); type: cell-based; details: Mus musculus, HT-22; erastin as inducer; method not given; read-out: Observed EC50 erastin
HT22 cells [8] = test: Oxytosis Assay (glutamate-induced cell death, MTT); type: cell-based, mouse
Procedure: Oxytosis Assay. HT22 cells were seeded at 3,000 cells/well in 96-well tissue culture plates in DMEM plus 10% FBS and 1% antibiotics. After 24 hr of plating, the cells were pretreated with different concentrations of the test compounds or a vehicle control for 1 hr followed by coincubation with 5 mM glutamate to initiate the cell death cascade. After 16 hr of treatment, cell viability was measured by the 3−(4,5-dimethylthiazol-2-yl)-2,5-diphenyltetrazolium bromide (MTT) assay. Optical absorbance was measured at 570 nm on a SpectraMax M5 microplate reader. Samples were analyzed in eight to sixteen wells per independent experiment (n=8-16). Results were presented as the percentage of the controls with vehicle alone.

## CCCCCc1cc(O)c2c(c1)OC(C)(C)c1ccc(C)cc1-2 [CBN, 6,6,9-Trimethyl-3-pentyl-benzo[c]chromen-1-ol]
HT22 cells [1]; 50 nM RSL3, 16 hr
  RSL3-induced ROS production at cellular and mitochondrial levels: suppressed
HT22 cells [1]; 5 μM, 16 hr
  cellular and mitochondrial ROS (redox status), compound alone: did not affect the redox status of cells or mitochondria
HT22 cells [2]; 5 μM, 16 hr
  Ca^2+ in cytosol and mitochondria, compound alone: did not affect Ca^2+ influx
HT22 cells [2]; pretreatment 1 hr, co-incubation with RSL3
  Ca^2+ levels in cytosol and mitochondria with RSL3: maintained basal Ca^2+ levels
[3]
  capacity to scavenge total free radicals (TEAC): relatively weak capacity
[4]
  Fe^2+ binding: did not show significant Fe^2+ binding
HT22 cells [5]; 5 μM, 16 hr, vs control group
  increase of MitoTracker fluorescence (mitochondrial mass): 4.9%
HT22 cells [5]; RSL3-induced oxytosis/ferroptosis
  mitochondrial mass with RSL3: preserve the mitochondrial mass at the control level
HT22 cells [6]
  total GSH levels: no impact
Primary cortical neurons
  neuroprotection against 50 nM RSL3: ~100%
HT22 cells [7]
  EC50: 2500 nM
HT22 cells [8]; 5 μM pretreatment 1 hr, then 5 mM glutamate 16 hr
  glutamate-induced morphological changes: effectively prevented
HT22 cells [8]; Mus musculus, HT-22, 16 h, read-out: EC50 against oxytosis/ferroptosis induced by 5 mM glutamate (FIG. 2G)
  EC50: 1890 nM
